# From patent publication US4081548A, “Antibiotics” (Merck & Co., Inc., priority 1976, dated 1978)
# Assays:
# Assay type in all cases: cell-based
# [1] = tested on: Serratia 2840; assay: Bauer-Kirby disc diffusion (2 mm agar depth), zone of inhibition, Table 1; settings: preparation III, 6.6 μg antibiotic/disc, strain resistance: P, C (penicillins, cephalosporins), read-out: diameter of the zone of inhibition
# Source text: (§1) Thienamycin is further characterized by the following antibiotic spectrum profile. The test employs the Bauer-Kirby disc diffusion method modified only in respect to the 2 mm. agar depth employed here.
# [2] = tested on: Staphylococcus aureus 2314; assay: as above; settings: preparation III, 6.6 μg antibiotic/disc, strain resistance: P (penicillins), read-out: diameter of the zone of inhibition
# Source text: as §1
# [3] = tested on: Pseudomonas aeruginosa 2824; assay: as above; settings: preparation III, 6.6 μg antibiotic/disc, strain resistance: P, C (penicillins, cephalosporins), read-out: diameter of the zone of inhibition
# Source text: as §1
# [4] = tested on: Escherichia coli 2964; assay: as above; settings: preparation III, 6.6 μg antibiotic/disc, strain resistance: P, C (penicillins, cephalosporins), read-out: diameter of the zone of inhibition
# Source text: as §1
# [5] = tested on: Escherichia coli 2482; assay: as above; settings: preparation III, 6.6 μg antibiotic/disc, strain resistance: --, read-out: diameter of the zone of inhibition
# Source text: as §1
# [6] = tested on: Klebsiella 2921; assay: as above; settings: preparation III, 6.6 μg antibiotic/disc, strain resistance: P (penicillins), read-out: diameter of the zone of inhibition
# Source text: as §1
# [7] = tested on: Pseudomonas aeruginosa 3210; assay: as above; settings: preparation III, 6.6 μg antibiotic/disc, strain resistance: P, C (penicillins, cephalosporins), read-out: diameter of the zone of inhibition
# Source text: as §1
# [8] = tested on: Proteus mirabilis 2830; assay: as above; settings: preparation III, 6.6 μg antibiotic/disc, strain resistance: P, C (penicillins, cephalosporins), read-out: diameter of the zone of inhibition
# Source text: as §1
# [9] = tested on: Escherichia coli 2017; assay: as above; settings: preparation III, 6.6 μg antibiotic/disc, strain resistance: --, read-out: diameter of the zone of inhibition
# Source text: as §1
# [10] = tested on: Staphylococcus aureus 2985; assay: as above; settings: preparation III, 6.6 μg antibiotic/disc, strain resistance: --, read-out: diameter of the zone of inhibition
# Source text: as §1
# [11] = tested on: Klebsiella 2922; assay: as above; settings: preparation III, 6.6 μg antibiotic/disc, strain resistance: P (penicillins), read-out: diameter of the zone of inhibition
# Source text: as §1
# [12] = tested on: Pseudomonas aeruginosa 2616; assay: as above; settings: preparation III, 6.6 μg antibiotic/disc, strain resistance: P, C (penicillins, cephalosporins), read-out: diameter of the zone of inhibition
# Source text: as §1
# [13] = tested on: Enterobacter cloacae 2646; assay: as above; settings: preparation III, 6.6 μg antibiotic/disc, strain resistance: P, C (penicillins, cephalosporins), read-out: diameter of the zone of inhibition
# Source text: as §1
# [14] = tested on: Streptococcus faecalis 755; assay: as above; settings: Enterococcus faecalis, preparation III, 6.6 μg antibiotic/disc, strain resistance: --, read-out: diameter of the zone of inhibition
# Source text: as §1
# [15] = tested on: Enterobacter cloacae 2647; assay: as above; settings: preparation III, 6.6 μg antibiotic/disc, strain resistance: --, read-out: diameter of the zone of inhibition
# Source text: as §1
# [16] = tested on: Proteus morganii 2833; assay: as above; settings: Morganella morganii, preparation III, 6.6 μg antibiotic/disc, strain resistance: P, C (penicillins, cephalosporins), read-out: diameter of the zone of inhibition
# Source text: as §1
# [17] = tested on: Bacillus subtilis 964; assay: as above; settings: preparation III, 6.6 μg antibiotic/disc, strain resistance: --, read-out: diameter of the zone of inhibition
# Source text: as §1
# [18] = tested on: Staphylococcus aureus ATCC 6538P; assay: disc-diffusion assay of antibacterial activity (5 ml plates); settings: estimated or calculated potency; one unit = same inhibition as 1 μg. of cephalothin/ml.
# Method: Assays of antibacterial activity are run according to the following disc-diffusion procedure unless otherwise indicated. The assay plates are prepared in the following manner. An overnight growth of the assay organism, Staphylococcus aureus ATCC 6538P, in nutrient broth plus 0.2% yeast extract is diluted with nutrient broth plus 0.2% yeast extract to a suspension having 55% transmittance at a wavelength of 660 mμ. This suspension is added to Difco nutrient agar supplemented with 2.0 g./l. Difco yeast extract, at 47° C. to 48° C., to make a composition containing 33.2 ml. of the suspension per liter of agar. Five ml. of this suspension is poured into petri dishes of 85 mm. diameter, and these plates are chilled and held at 4° C. until used (5 day maximum).
# Samples of the antibiotic to be assayed are diluted to an appropriate concentration in phosphate buffer at pH 7. Filter-paper discs, 0.5-inch in diameter, are dipped into the test solution and placed on the surface of the assay plate; two discs for each sample are normally placed on one plate opposite to one another. The plates are incubated overnight at 37° C. and the zone of inhibition is measured as mm. diameter. The zone of inhibition measured in mm. determines relative potencies or, when compared with a purified reference standard such as cephalothin, the potency of antibiotic in units/ml. The unit of activity reported in Examples 4 through 7 is based on cephalothin standard solutions of 8, 4, 2 and 1 μg./ml. One unit is defined as the amount which calculates to produce the same inhibition as 1 μg. of cephalothin/ml. that zone of inhibition being between 16 and 21 mm. diameter.
compound,measurement,setting,value
"C[C@@H](O)[C@H]1C(=O)N2C(C(=O)O)=C(SCCN)C[C@H]12 [III, thienamycin]",zone of inhibition at 6.6 µg/disc,[1],23 mm
same,zone of inhibition at 6.6 µg/disc,[2],38 mm
same,zone of inhibition at 6.6 µg/disc,[3],30 mm
same,zone of inhibition at 6.6 µg/disc,[4],27 mm
same,zone of inhibition at 6.6 µg/disc,[5],27 mm
same,zone of inhibition at 6.6 µg/disc,[6],25 mm
same,zone of inhibition at 6.6 µg/disc,[7],25 mm
same,zone of inhibition at 6.6 µg/disc,[8],21 mm
same,zone of inhibition at 6.6 µg/disc,[9],28 mm
same,zone of inhibition at 6.6 µg/disc,[10],38 mm
same,zone of inhibition at 6.6 µg/disc,[11],25 mm
same,zone of inhibition at 6.6 µg/disc,[12],20.5 mm
same,zone of inhibition at 6.6 µg/disc,[13],25 mm
same,zone of inhibition at 6.6 µg/disc,[14],24 mm
same,zone of inhibition at 6.6 µg/disc,[15],27.5 mm
same,zone of inhibition at 6.6 µg/disc,[16],20 mm
same,zone of inhibition at 6.6 µg/disc,[17],46 mm
same,potency (estimated / calculated),[18],"~31,000 units/mg."
